According to patent publication US10610517B2, “Compositions and methods for treating neoplastic diseases” (Celgene International II Sàrl, priority 2004, dated 2020):
Where two headings read alike, the source gives them in different places.

Assays:
[1] = molecular target: proteasome β-5, β-1, β-2 subunits in MM.1S cells (Homo sapiens, UniProt P28072+P28074+Q99436); format: cell-based
Protocol: In vivo determination of proteasome activity was conducted using a competition experiment with Dansyl-Ahx3L3VS, which covalently modifies all active proteasome subunits. This inhibitor contains a dansyl sulfonamide hexanoyl hapten that can be visualized by immunoblotting using antibodies against the dansyl moiety. […] Cells were lysed by incubating them for 30 mins in NP-40 lysis buffer (50 mM Tris-HCl pH 8.0, 150 mM NaCl, 1% NP-40), followed by 5 min. centrifugation to remove membrane fractions, nuclei, and cell debris. […] Blots were developed by enhanced chemiluminescence (Western Lightning, Perkin-Elmer).

[2] = system: normal CCD-27sk fibroblasts; experiment: cells; format: cell-based, human
Description: (§1) Whether the compound of formula (II) or Bortezomib alters proteasome activity in normal lymphocytes and skin fibroblasts was also examined.

[3] = system: Lymphocytes from five healthy donors; experiment: MTT cytotoxicity on normal lymphocytes
Description: Bortezomib therapy is associated with toxicity in patients. […] Results are the mean±SD of three independent experiments.

RPMI 8226 MM cells = format: in vivo, beige-nude-xid (BNX) mice
MM.1S cells = experiment: Mitochondrial and caspase apoptotic signaling in MM cells (flow cytometry, immunoblot); format: cell-based, human; settings: 7 nM
Protocol: Mitochondria play a critical role in apoptosis induction during stress. See Bossy-Wetzel, E. & Green, D. R. (1999) Mutat Res 434, 243-51 and Chauhan, D. & Anderson, K. C. […] Superoxide (O2^−) production was measured by staining cells with membrane permeable dye dihydroethidium (HE) for the last 15 min. Superoxide anions oxidize HE to fluorescent ethidium, permitting analysis by flow cytometry.
Reprobing the immunoblots with anti-Hsp60 (lower, left panel) and anti-tubulin (lower, right panel) Abs confirms purity of mitochondrial extracts and equal protein loading. Release of mitochondrial apoptogenic proteins cyto-c and Smac/DIABLO induce activation of caspases-9 and -3. […] As a control for equal loading of proteins and purity of mitochondrial fractions, filters were also reprobed with anti-tubulin (lower right panel) and anti-Hsp60 Abs (lower left panel), respectively. Blots are representative of three independent experiments.
Both caspase-9 (mitochondria-dependent) and caspase-8 (mitochondria-independent) are known to proteolytically cleave and activate a common downstream effector capsase-3, resulting in PARP cleavage. […] Total protein lysates were subjected to SDS-PAGE analysis. Immunoblot analysis of the lysates was performed with anti-PARP (upper panel) or anti-caspase-3 (lower panel) Abs. ‘FL’ indicates ‘full length’ and ‘CF’ denotes cleaved fragment.
Immunoblot analysis was performed using antibodies to cytochrome-c, Smac, Caspase-8, -9, or -3 (Cell Signaling, Beverly, Mass.), tubulin (Sigma, St. Louis, Mo.), PARP, Hsp60, or Bax (BD Bioscience Pharmingen, San Diego, Calif.). Blots were developed by enhanced chemiluminesence (ECL; Amersham, Arlington Heights, Ill.).

[4] = system: purified (CD138-positive) patient MM cells; experiment: DNA fragmentation apoptosis assay on purified patient MM cells
[5] = system: Bcl2-transfected MM.1S cells; experiment: MTT viability of Bcl2-transfected MM.1S cells
Protocol: Bcl2 confers resistance to conventional therapies in cancer cells, including MM. […] Bcl2 can modestly attenuate Bortezomib-induced apoptosis. Thus, whether ectopic expression of Bcl2 in MM.1S cells affects responsiveness to the compound of formula (II) (X=Cl) was evaluated. MM.1S cells were stably transfected with Bcl2 construct and analyzed for alterations in cell viability using an MTT assay. […] Results are mean±SD of three independent experiments.
During apoptosis Bax neutralizes the antiapoptotic function of Bcl-2, thereby facilitating the cyto-c release and caspase-9 activation. Bcl-2 also confers drug resistance in cancer cells, including MM, and provides partial protection against Bortezomib-induced killing. Therefore, whether ectopic expression of Bcl-2 in MM.1S cells affects the ability of the compound of formula (II) or Bortezomib to trigger cytotoxicity and postmitochondrial apoptotic signaling in MM cells was evaluated.

MM.1S MM cells = experiment: VEGF-induced migration of MM cells; format: cell-based, human; settings: 7 or 10 nM; FIG. 8
Protocol: VEGF is elevated in the bone marrow microenvironment and triggers migration, growth, and angiogenesis in MM cells. See Podar, K., Tai, Y. T., Lin, B. K., Narsimhan, R. P., Sattler, M., Kijima, T., Salgia, R., Gupta, D., Chauhan, D. & Anderson, K. C. […] Thus, whether the compound of formula (II) (X=Cl) alters VEGF-induced migration of MM cells was evaluated. VEGF induced migration was examined in the presence or absence of the compound (7 or 10 nM). Cell migration was assayed as described previously in Podar, K., Tai, Y. T., Davies, F. E., Lentzsch, S., Sattler, M., Hideshima, T., Lin, B. K., Gupta, D., Shima, Y., Chauhan, D., Mitsiades, C., Raje, N., Richardson, P. & Anderson, K. C. […] These findings indicate that the compound may negatively regulate both homing of MM cells to the bone marrow and their egress into the peripheral blood.

[6] = system: Chymotrypsin-like proteasome activity; format: cell-based, human; settings: data not shown
Description: as §1

[7] = 0.25 or 0.5 mg/kg orally twice a week

## CC12OC(=O)C1(C(O)C1C=CCCC1)NC(=O)C2CCCl (stereo not drawn) [compound of formula (II) (X=Cl)]
[1]; 7 nM, 30 mins, 1 h or 3 h, FIG. 4
  dansylAhx3L3VS-labeling of the β-5 subunits: decreases the dansylAhx3L3VS-labeling of the β-5 subunits
[1]; MM.1S cells
  concentration decreasing dansylAhx3L3VS-labeling of the β-1 subunits: 1 nM
  concentration decreasing dansylAhx3L3VS-labeling of the β-2 subunits: 20 nM
[2]
  IC50: 317 nM
[3]; 72 h, 0-20 nM (compound even at 20 nM; Bortezomib at 6-10 nM), FIG. 13
  viability of normal lymphocytes: does not significantly decrease the survival of normal lymphocytes
[3]; in words
  effect on normal lymphocytes at the IC50 of patient MM cells: no effect on normal lymphocytes
RPMI 8226 MM cells; [7]
  MM tumor growth: significantly inhibits MM tumor growth
  survival: prolongs survival
RPMI 8226 MM cells; after 12 weeks of treatment, oral
  neurological behavioral changes: no neurological behavioral changes were observed
RPMI 8226 MM cells; day 300, oral, FIG. 10C
  treated mice with no recurrence of tumor: 57%
RPMI 8226 MM cells; i.v. twice weekly (compound 0.15 mg/kg; Bortezomib 1.0 mg/kg), p<0.01
  tumor progression: significantly reduced the tumor progression
RPMI 8226 MM cells; i.v. twice weekly (compound 0.15 mg/kg; Bortezomib 1.0 mg/kg), p=0.0137
  survival: prolonged survival
RPMI 8226 MM cells; oral 0.25 or 0.5 mg/kg, FIG. 10D
  tolerability and body weight: well tolerated by mice, without evidence of weight loss
RPMI 8226 MM cells; oral, twice a week
  treated mice with complete regression of tumors: 70%
RPMI 8226 MM cells; versus vehicle, FIG. 10E
  histologic analysis of the inoculation sites: disappearance of plasma cells
MM.1S cells; 12 h, serum starved MM.1S, FIG. 11A
  mitochondrial membrane potential (ΔΨm), CMXRos: decreases ΔΨm
MM.1S cells; 12 h, FIG. 11B
  Superoxide (O2−) production, dihydroethidium: triggers O2^− production
MM.1S cells; 24 h, MM.1S or MM.1R, FIG. 11F
  caspase-3 and PARP cleavage: triggers caspase-3 and PARP cleavage
MM.1S cells; 24 h, FIG. 11C
  mitochondrial versus cytosolic cyto-c and smac: triggers a decrease in mitochondrial cyto-c
MM.1S cells; 24 h, FIG. 11D
  caspase-9 cleavage: induces proteolytic cleavage of caspase-9
MM.1S cells; 24 h, FIG. 11E
  caspase-8 activation: activates caspase-8
[4]; 10 nM, 24 h, nine relapsed MM patients, FIG. 5B
  apoptosis by DNA fragmentation assay: significant apoptosis
[4]; CD138+ cells of two patients, 20 nM, 24 h, FIG. 6
  increase in apoptosis: 10-12 fold
[4]; stated in words
  IC50 for MM cells: within the nanomolar concentration
[5]; Bcl-2- versus vector-transfected, FIG. 14A
  increased survival of Bcl-2 transfectants: 11%
[5]; Bcl-2-transfected cells, FIG. 14A
  viability: 50%±2.6
[5]; FIG. 9
  less cell death in Bcl2-transfected cells compared to empty vector-transfected MM.1S cells: 15±1.1%
[5]; FIG. 14B
  effect of Bcl-2 overexpression on induced caspase-9 cleavage: minimally affected
[5]; dose-dependent, FIG. 9
  cell viability of Bcl2-transfected MM.1S cells: significantly decreases cell viability
[5]; vector-transfected cells, FIG. 14A
  viability: 39%±1.5
MM.1S MM cells
  VEGF-induced migration: decreases VEGF-induced migration
[6]; 20 nM
  inhibition of Chymotrypsin-like proteasome activity: 99%
[6]; treatment at the IC50
  proteasome activity in CCD-27sk fibroblasts: inhibited proteasome activity
